From PMC3006429 (PLoS ONE, 2010)
Values joined by “and” are separate entries in the source; they are usually repeats but may differ in a detail not shown here. Equal entries are not always repeated. Where two headings read alike, the source gives them in different places.

Key:
[1] = target: Klenow Fragment (KF) of E. coli DNA polymerase I (Escherichia coli, UniProt P00582); type: biochemical
[2] = target: HIV-1 reverse transcriptase (HIV-1 RT) (Human immunodeficiency virus type 1 group M subtype B, UniProt P03366); type: biochemical
FMDV 3Dpol [3] = target: T1, FMDV 3Dpol (Foot-and-mouth disease virus, UniProt P03311); assay: biochemical; settings: IC50 of 3Dpol inhibition (gel-based)
T1 sequence (P03311 1858-2327 limits assumed): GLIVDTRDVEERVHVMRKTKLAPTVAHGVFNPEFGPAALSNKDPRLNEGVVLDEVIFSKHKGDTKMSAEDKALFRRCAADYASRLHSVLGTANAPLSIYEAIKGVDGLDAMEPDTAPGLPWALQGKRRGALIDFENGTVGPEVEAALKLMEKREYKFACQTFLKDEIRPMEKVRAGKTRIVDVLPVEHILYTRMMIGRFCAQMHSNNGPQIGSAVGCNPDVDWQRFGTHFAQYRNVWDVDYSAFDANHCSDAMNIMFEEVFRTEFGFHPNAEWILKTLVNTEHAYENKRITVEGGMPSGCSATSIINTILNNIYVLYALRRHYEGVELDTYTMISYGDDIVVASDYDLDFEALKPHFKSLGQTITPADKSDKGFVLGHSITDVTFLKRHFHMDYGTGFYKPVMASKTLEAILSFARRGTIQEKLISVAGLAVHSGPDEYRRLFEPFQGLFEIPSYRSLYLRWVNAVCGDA

in vitro = settings: hamster
FMDV 3Dpol [4] = target: T1, FMDV 3Dpol; assay: biochemical; type: biochemical
FMDV 3Dpol [5] = target: T1, FMDV 3Dpol; assay: biochemical
FMDV A24 Cruzeiro = assay: microbe, parasite or virus in culture; type: cell-based, Foot-and-Mouth Disease Virus
FMDV = settings: cited from earlier work; for EC50: read-out: EC50 (FMDV replication in cell cultures); for EC90: read-out: EC90 (FMDV replication in cell cultures)
WT 3Dpol = WT 3Dpol (Foot-and-mouth disease virus, UniProt P03311); assay: biochemical; settings: IC50 (filter binding assay)
WT 3Dpol, sequence (P03311 1858-2327 limits assumed): as above

Klenow Fragment (KF) of E. coli DNA polymerase I, sequence (P00582 324-928): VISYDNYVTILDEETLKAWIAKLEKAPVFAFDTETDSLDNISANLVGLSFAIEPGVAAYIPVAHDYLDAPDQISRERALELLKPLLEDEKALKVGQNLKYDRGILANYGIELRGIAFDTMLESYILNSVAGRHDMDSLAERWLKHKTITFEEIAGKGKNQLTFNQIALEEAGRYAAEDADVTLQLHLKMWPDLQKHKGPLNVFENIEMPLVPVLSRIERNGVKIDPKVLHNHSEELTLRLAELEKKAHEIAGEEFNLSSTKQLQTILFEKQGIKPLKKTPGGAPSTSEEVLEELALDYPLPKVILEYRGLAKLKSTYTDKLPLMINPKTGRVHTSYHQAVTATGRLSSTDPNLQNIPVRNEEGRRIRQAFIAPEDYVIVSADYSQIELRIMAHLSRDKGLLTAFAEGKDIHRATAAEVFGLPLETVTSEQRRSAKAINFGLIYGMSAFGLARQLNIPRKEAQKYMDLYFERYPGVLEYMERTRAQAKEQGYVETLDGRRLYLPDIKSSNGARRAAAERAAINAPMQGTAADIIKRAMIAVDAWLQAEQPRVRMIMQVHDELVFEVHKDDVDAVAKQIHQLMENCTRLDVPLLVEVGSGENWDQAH

SMILES | inhibition of KF polymerase activity [1] | inhibition of HIV-1 RT polymerase activity [2] | IC50 (FMDV 3Dpol [3]) | CC50 (in vitro) | other results
O=C(Sc1cccs1)c1cncc(C#Cc2ccccc2)c1 [4H6] | No significant inhibition | No significant inhibition | 8 µM | > 100 µM | –
O=S1(=O)C=C(CSc2cccs2)c2cc(Cl)ccc21 [7F8] | No significant inhibition | No significant inhibition | 10 µM | > 100 µM | kinetic mechanism of inhibition (FMDV 3Dpol [4]): non-competitive
Cc1cn([C@@H]2O[C@H](COP(=O)(O)OP(=O)(O)OP(=O)(O)O)C[C@H]2O)c(=O)[nH]c1=O [DMUT, 3′-deoxy-5-methyl uridine triphosphate] | – | – | – | – | IC50 (FMDV 3Dpol [5]): 680 nM
O=S(=O)(NNc1ncnc2sccc12)c1ccc(Cl)cc1 [5D9] | No significant inhibition | No significant inhibition | 12 µM | > 100 µM | Ki (FMDV 3Dpol [4]): 9.4 ± 2.5 µM; kinetic mechanism of inhibition (FMDV 3Dpol [4]): non-competitive; antiviral potency relative to ribavirin (FMDV A24 Cruzeiro): ~80 fold; inhibition of viral replication (FMDV A24 Cruzeiro): inhibition of viral replication; EC50 (FMDV A24 Cruzeiro; Foot-and-mouth disease virus, BHK-21, 24 h, read-out: EC50 (virus production in FMDV-infected cells)): 12 µM; EC90 (FMDV A24 Cruzeiro; Foot-and-mouth disease virus, BHK-21, 24 h, read-out: EC90 (virus production in FMDV-infected cells)): 20 µM; inhibition at 20 µM (FMDV A24 Cruzeiro; Foot-and-mouth disease virus, BHK-21, read-out: inhibition of virus replication): 90%
C[C@@]1(O)[C@H](O)[C@@H](CO)O[C@H]1n1ccc(N)nc1=O [2′-C-methylcytidine] | – | – | – | – | EC50 (FMDV): 10 µM; EC90 (FMDV): 15 µM
O=C1C(Cl)=C(Sc2ccccc2Br)C(=O)c2ccccc21 [8C5] | No significant inhibition | No significant inhibition | 5.4 µM | 55 µM | inhibition of viral replication (FMDV A24 Cruzeiro): inhibition of viral replication; IC50 (WT 3Dpol): 5.4 µM
N#CC(C(=O)Nc1cccc(C(F)(F)F)c1)C(=S)Nc1ccccc1Cl (centres unmarked) [3A11] | – | – | ~2 µM and 2 µM | 70 µM | –
NC(=O)c1ncn([C@@H]2O[C@H](CO)[C@@H](O)[C@H]2O)n1 [ribavirin] | – | – | – | – | EC50 (FMDV): 970 µM; EC90 (FMDV): 1700 µM
O=[N+]([O-])c1ccc(Sc2ccc(Cl)cc2Cl)c2nonc12 [1A8] | No significant inhibition | No significant inhibition | 17.8 µM | – | IC50 (WT 3Dpol): 17.4 µM and 17.8 µM
CCOC(=O)/C(=N\Nc1ccc(Br)cc1)C(=O)CSC#N [9A3] | No significant inhibition | No significant inhibition | 10 µM | > 100 µM | –
